Source: patent US20140315972A1, “RS)-2-(2-oxo-4-phenylpyrrolidin-1-yl)acetamide compound having modulatory activity with a commensurate effect, pharmaceutical substance (variants) and its application, composition (variants) thereof” (priority 2011, published 2014)
Marks after values point to notes of the source that are not given here.

Assays:
Assay type in all cases: in vivo
[1] = system: rats; experiment: 14-day immobilization in antiorthostatic position (Ds), thymus, spleen, adrenal mass ratios Kt; details: Ds-conditions; for S/A: spleen/adrenals ratio (mg/100 g baseline body weight); for S/T: spleen/thymus ratio (mg/100 g baseline body weight); for T/A: thymus/adrenals ratio (mg/100 g baseline body weight)
[2] = system: mice; experiment: Electric extremities pain stimulation, thresholds TA, TFC, TF
[3] = system: mice; experiment: Hypobaric hypoxia in pressure chamber, adult mice; details: for Duration of life: adult mice, hypobaric hypoxia
[4] = system: rabbits; experiment: Transcallosal stimulation induced potential (TSIP); details: Piracetam 300-500, Pyritinol 50-150, Phenotropil 25-300 mg/kg

SMILES: NCC(CC(=O)O)c1ccccc1 (stereo not drawn) [phenibut]
- S/A ([1]; 50 mg/kg): 10.2 ± 0.3
- S/T ([1]; 50 mg/kg): 7.6 ± 0.2
- T/A ([1]; 50 mg/kg): 1.3 ± 0.6
- S/A ([1]; 100 mg/kg): 8.0 ± 0.1
- S/T ([1]; 100 mg/kg): 4.7 ± 0.1
- T/A ([1]; 100 mg/kg): 1.7 ± 0.1

SMILES: NCC(CC(=O)O)c1ccccc1 (stereo not drawn) [Phenibut (+)]
- S/A ([1]; 50 mg/kg): 13.0 ± 0.1
- S/T ([1]; 50 mg/kg): 4.8 ± 0.1
- T/A ([1]; 50 mg/kg): 2.7 ± 0.1

SMILES: O=C1CC(c2ccccc2)CN1 (racemic) [Fepiron, 4(R,S)-feniilpirrolidin-2-one]
- TA (threshold of attention) vs control ([2]; 25 mg/kg i.p.): 0.0%
- TFC (threshold of first cheep) vs control ([2]; 25 mg/kg i.p.): −5.7%
- TA (threshold of attention) vs control ([2]; 50 mg/kg i.p.): +5.0%
- TFC (threshold of first cheep) vs control ([2]; 50 mg/kg i.p.): +11.4 * %
- TA (threshold of attention) vs control ([2]; 100 mg/kg i.p.): +12.5 * %
- TFC (threshold of first cheep) vs control ([2]; 100 mg/kg i.p.): +2.8%
- S/A ([1]; 50 mg/kg): 11.3 ± 0.3
- S/T ([1]; 50 mg/kg): 5.4 ± 0.3
- T/A ([1]; 50 mg/kg): 2.1 ± 0.2
- S/A ([1]; 100 mg/kg): 9.0 ± 0.3
- S/T ([1]; 100 mg/kg): 5.4 ± 0.3
- T/A ([1]; 100 mg/kg): 1.6 ± 0.3
- S/A ([1]; 200 mg/kg): 9.4 ± 0.4
- S/T ([1]; 200 mg/kg): 9.5 ± 0.9
- T/A ([1]; 200 mg/kg): 1.0 ± 0.1
- increase of survival time vs control ([3]; 100 mg/kg): 47.8%
- effect on survival of the animals ([3]; 25-50 mg/kg): did not affect the survival of the animals
- Duration of life ([3]; 25 mg/kg): 2.3 ± 0.2^ min
- Duration of life ([3]; 50 mg/kg): 2.7 ± 0.2^ min
- Duration of life ([3]; 100 mg/kg): 3.4 ± 0.2 min

SMILES: NCC(CC(=O)O)c1ccccc1 (stereo not drawn) [Phenibut (−)]
- S/A ([1]; 50 mg/kg): 12.0 ± 0.3
- S/T ([1]; 50 mg/kg): 4.8 ± 0.3
- T/A ([1]; 50 mg/kg): 2.5 ± 0.3

SMILES: NC(=O)CN1CC(c2ccccc2)CC1=O (stereo not drawn) [Fepiron (−)]
- S/A ([1]; 200 mg/kg): 9.0 ± 0.5
- S/T ([1]; 200 mg/kg): 4.9 ± 0.7
- T/A ([1]; 200 mg/kg): 1.9 ± 0.3

SMILES: CN1C(=O)CN=C(c2ccccc2)c2cc(Cl)ccc21 [Seduxen]
- S/A ([1]; 2 mg/kg): 7.6 ± 0.2
- S/T ([1]; 2 mg/kg): 3.6 ± 0.1
- T/A ([1]; 2 mg/kg): 2.2 ± 1.4

SMILES: Cc1ncc(CSSCc2cnc(C)c(O)c2CO)c(CO)c1O [Pyritinol]
- TSIP P1 + N1 amplitude [4]: + (amplitude increase by less than 50%)
- TSIP component N1 amplitude [4]: + (amplitude increase by less than 50%)
- TSIP component P1 amplitude [4]: + (amplitude increase by less than 50%)
- TSIP component P2 amplitude [4]: + (amplitude increase by less than 50%)

SMILES: NC(=O)CN1CC(c2ccccc2)CC1=O (stereo not drawn) [Fepiron (+)]
- S/A ([1]; 200 mg/kg): 11.3 ± 0.4
- S/T ([1]; 200 mg/kg): 5.4 ± 0.1
- T/A ([1]; 200 mg/kg): 2.1 ± 0.6
